This passage reports % fluorescent cells increase results from PubChem BioAssay AID743396 (Broad Institute, 2014).

The source made the active and inactive calls.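 The calls were made as follows: active = fitted curve reaches a 40% rise in fluorescent cells at or below the top valid dose; inactive = opposite-direction effect, or the rest.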

One assay is described as follows: compound fluorescence in GFP channel, mTEFS cells – imaging, mTEFS fibroblasts, cherry-pick, artefact control for X-chromosome reactivation project, dose response (AID 743396).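 Also: raw share of Hoechst-counted cells scored GFP positive without control normalization.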 The note with it: mTEFS fibroblasts autofluorescence, GFP-channel imaging, 3 days; at 6.8 µM (top of the series); cells pretreated with 5-aza-dC.
Take `CCN1/C(=C/c2ccc3cc(C)ccc3[n+]2CC)Sc2cc(C)c(C)cc21`: the % fluorescent cells increase is 27.9% (inactive).

Still in this assay, the particulars now being: mTEFS fibroblasts autofluorescence, GFP-channel imaging, 3 days; at 19.5 µM (top of the series).
`Cc1cc(=O)oc2cc3c(cc12)CCCN3`: the % fluorescent cells increase is 0.269% (inactive).
Still for that read-out and setting: next, `COCCCn1c(N)c(C(=O)Nc2ccccc2)c2nc3ccccc3nc21`: 0.01% (inactive).
In the case of `COP(=S)(OC)Oc1ccc(Sc2ccc(OP(=S)(OC)OC)cc2)cc1`, the % fluorescent cells increase was 0.075% (inactive).
For the compound `O=C(c1cccc2ccccc12)C1CCCN(Cc2ccon2)C1` (centres undefined), the % fluorescent cells increase is 0% (inactive).

The assay is the same for the next values; noted with them: mTEFS fibroblasts autofluorescence, GFP-channel imaging, 3 days; at 19.5 µM (top of the series); cells pretreated with 5-aza-dC.
In the case of `COc1ccccc1NC(=S)N(CCCN1CCOCC1)Cc1cccs1`, the % fluorescent cells increase is -0.007% (inactive).
On the same count and under the same terms, as for `CCOC(=O)c1c(C)[nH]c(N=Nc2ccc(OC)cc2)c1C`, the figure is 0.028% (inactive).
Still for that read-out and setting: next, `COc1ccc(NC(=O)Nc2ccc3c(c2)CC(=O)N([C@H](C)CO)C[C@H](C)[C@@H](CN(C)S(=O)(=O)c2ccc(F)cc2)O3)cc1`: 2.89% (inactive); `CC(C)Oc1ccc(/C(O)=C2/C(=O)C(=O)N(CCN(C)C)C2c2cccs2)cc1` (centres undefined): 0% (inactive); `COC(=O)c1cc(NS(=O)(=O)c2ccc(NC(C)=O)cc2)ccc1Cl`: 0% (inactive).
Regarding `Cc1ccc(S(=O)(=O)N2CC3(O)CN(C(=O)OC(C)C)N(C(=O)OC(C)C)CC3(OC(=O)NCc3ccccc3)C2)cc1` (centres undefined), the % fluorescent cells increase was 0.003% (inactive).
Still for that read-out and setting: as for `Cc1ccccc1OCC(O)CNC1CCC(NCC(O)COc2ccccc2C)CC1` (centres undefined), the figure is 0% (inactive).
Same read-out and setting: next, `C[C@H](NC(=O)C[C@H]1CC[C@@H](NC(=O)Cc2ccccn2)[C@@H](CO)O1)c1ccccc1`: 0.008% (inactive); `Cc1ncsc1C(=O)Nc1cccc(C(F)(F)F)c1`: 0.019% (inactive).
On the same count and under the same terms, as for `COc1ccc2c3c([nH]c2c1)[C@H](CO)N(C(=O)c1cccnc1)CC31CCN(Cc2ccccc2)CC1`, the figure is 0.458% (inactive); as for `Cc1ccc(S(=O)(=O)c2ccc([N+](=O)[O-])cn2)cc1`, 0% (inactive); as for `CCN(CC)CCCN=Cc1c(O)n(-c2cccc(C)c2)c(=O)c2ccccc12`, -0.011% (inactive).
Consider `Cc1cc(NC(=O)CSc2nnc(-c3c[nH]c4ccccc34)n2-c2ccc(F)cc2)no1`, for which the % fluorescent cells increase was 0.026% (inactive).
The same measure, in the same setting: next, `Cc1ccc(S(=O)(=O)N2CCN(C(=O)COC(=O)c3ccccc3OC(F)F)CC2)c(C)c1`: 0% (inactive); `CC(C)(C=O)C1=CC(=O)c2ccccc2C1=O`: 0% (inactive).
Still for that read-out and setting: next, `COc1ccc(-c2ccc(C3[C@@H]4CN(S(=O)(=O)c5ccccc5C)C[C@H]3N4)cc2)cc1` (some centres undefined): 0% (inactive).
Still for that read-out and setting: as for `COc1ccc(CN(C)Cc2nc(Cc3ccccc3Cl)no2)cc1OC`, the figure is 0.025% (inactive); as for `CCCCC(=O)N(C)c1c(CC)nc2c(OCC(=O)c3ccc(F)cc3)cccn12`, 3.76% (inactive); as for `COc1cc(/C=C(\C#N)c2nc3ccccc3o2)ccc1O`, 2.54% (inactive).
For the compound `CCOCCCNC(=O)/C(C#N)=C/c1ccc([N+](=O)[O-])o1`, the % fluorescent cells increase was 9.9% (inactive).
On the same count and under the same terms, next, `Cc1ccc(S(=O)(=O)NN2C(=O)/C(=C/c3ccccn3)SC2=S)cc1`: 0.042% (inactive); `COc1ccc(N=Nc2ccc(O)c(P(=O)(c3ccccc3)c3ccccc3)c2)cc1`: 0% (inactive).
Take `C(CCCN1CCCCC1)CCN1CCCCC1`: the % fluorescent cells increase is 0.016% (inactive).
On to `CC(C)c1cc(C(=O)N/N=C/c2cccnc2)cs1`, for which the % fluorescent cells increase was -0.004% (inactive).
Still for that read-out and setting: as for `O=C(NNC(=O)c1cc2ccccc2o1)c1ccc(Cl)cc1`, the figure is 0.148% (inactive); as for `Cc1c(CN2CCCC(C(=O)c3cccc(OC(C)C)c3)C2)c(=O)n(-c2ccccc2)n1C` (centres undefined), 0.037% (inactive).
As for `CN(C1CCCCC1)S(=O)(=O)c1ccc(C(=O)N2CCN(c3nc4ccccc4s3)CC2)cc1`, the % fluorescent cells increase was -0.007% (inactive).
Same read-out and setting: as for `CC(=O)OCCNc1cc(Sc2nc3ccccc3[nH]2)c2nonc2c1[N+](=O)[O-]`, the figure is 9.92% (inactive); as for `Cc1cc(NC(=O)c2c(-c3c(Cl)cccc3Cl)noc2C)n(C)n1`, 0.012% (inactive).
On the same count and under the same terms, as for `CCOC(=O)c1sc(-c2ccc(F)cc2)cc1NC(=O)Nc1ccccc1OC`, the figure is -0.011% (inactive); as for `O=C(c1ccccc1Cl)N1CCSCCS1(=O)=O`, 0% (inactive); as for `CCCOc1ccc(Oc2nc(-c3ccncc3)nc3ccccc23)cc1`, 0.007% (inactive).
On the same count and under the same terms, as for `COc1ccc(S(=O)(=O)N(C)C[C@H]2Oc3ccc(NS(=O)(=O)c4ccc(F)cc4)cc3CC(=O)N([C@@H](C)CO)C[C@@H]2C)cc1`, the figure is 0% (inactive); as for `Cc1ccc2[nH]c(C)c(/C=C/c3cc[n+](C)cc3)c2c1`, 8.78% (inactive); as for `C[C@@H]1CCCCO[C@@H](CN(C)C(=O)Nc2ccc(C(F)(F)F)cc2)[C@@H](C)CN([C@H](C)CO)C(=O)c2cc(NS(=O)(=O)c3ccc(F)cc3)ccc2O1`, -0.166% (inactive).
Consider `COc1cc(/C=C/C(=O)c2ccc([N+](=O)[O-])o2)ccc1O`, for which the % fluorescent cells increase is 5.15% (inactive).
Same read-out and setting: next, `N=c1ccn2c(n1)OC1C(O)C(CO)OC12` (centres undefined): -0.006% (inactive).
With `C[C@@H]1CN([C@H](C)CO)C(=O)c2cc(NS(=O)(=O)c3ccc(F)cc3)ccc2O[C@@H](C)CCCCO[C@@H]1CN(C)Cc1ccc2c(c1)OCO2`, the % fluorescent cells increase is 0% (inactive).
The same measure, in the same setting: next, `COc1cccc(CNC(=O)c2cc(S(=O)(=O)N3CCCC3)cn2C)c1`: 0% (inactive).
The same measure, in the same setting: as for `CC(=O)Nc1sc(C)c(C)c1C(=O)OCC(=O)Nc1cc(S(C)(=O)=O)ccc1Cl`, the figure is 0.274% (inactive).
Still for that read-out and setting: next, `COc1ccc2c3c(n(C)c2c1)[C@H](CO)N(C(=O)CN1CCOCC1)CC31CCN(C(=O)Nc2cccc(F)c2)CC1`: 0% (inactive).
For the compound `Nc1cc2c3c(cccc3c1)C(=O)N(CCN1CCCC1)C2=O`, the % fluorescent cells increase was -0.003% (inactive).
The same measure, in the same setting: as for `CCN1CCN(c2cc3nc(C)n(Cc4ccccc4)c(=O)c3cc2NC(=O)c2ccccc2F)CC1`, the figure is 0% (inactive); as for `CCn1nc(C)cc1-c1nnc(Sc2ncc([N+](=O)[O-])s2)n1C`, 0% (inactive).
As for `Cc1ccc(NCc2nnc(SCC(=O)NNC(=O)Cc3ccccc3)n2C)cc1`, the % fluorescent cells increase is 0.009% (inactive).
The same measure, in the same setting: next, `CCC(C)c1nc2ccsc2c(N2CCOC2=O)c1-c1ccccc1` (centres undefined): -0.011% (inactive).
In the case of `COc1ccc2c3c([nH]c2c1)[C@@H](CO)N(Cc1cc(F)ccc1F)CC31CCN(C(C)=O)CC1`, the % fluorescent cells increase was 0% (inactive).
Still for that read-out and setting: next, `CN1CCN(S(=O)(=O)c2ccc(C#N)cc2)C(c2ccccc2)C1` (centres undefined): 0% (inactive); `CCc1ccc(NS(=O)(=O)c2cccc3nonc23)cc1`: 5.79% (inactive).
The same measure, in the same setting: next, `CCN(CC)CCCNC1=C(Cl)C(=O)c2ccccc2C1=O`: -0.011% (inactive); `CCOc1ccc(N2C(=O)CC(Sc3nc(O)c(CC)c(=O)[nH]3)C2=O)cc1` (centres undefined): -0.007% (inactive); `CCc1ccccc1OCC(=O)Nc1ccc(N2CCCC2)cc1C`: 0.096% (inactive).
On to `CCOC(=O)CSc1nnc(CCCCCN2C(=O)c3cccc4cccc(c34)C2=O)o1`, for which the % fluorescent cells increase is 0.071% (inactive).
For the compound `Cc1cccc(C(=O)NCc2ccc(S(N)(=O)=O)cc2)c1[N+](=O)[O-]`, the % fluorescent cells increase was -0.007% (inactive).
Turning to `CC(NC(=O)c1ccccc1)C(=O)N/N=C/c1ccccc1` (centres undefined), the % fluorescent cells increase is 0% (inactive).
For `O=[N+]([O-])c1ccccc1-c1ccc(C(=S)N2CCN(c3ccccc3)CC2)o1`, the % fluorescent cells increase is 0.237% (inactive).
Take `O=C(c1cnccn1)N1CC(=O)N2[C@H](CO)[C@@H](c3ccc(-c4cccc(F)c4)cc3)[C@@H]2C1`: the % fluorescent cells increase is -0.166% (inactive).
Still for that read-out and setting: as for `CO[C@@H]1CN(C)C(=O)c2ccc(NC(=O)Nc3cccc(Cl)c3)cc2OC[C@H](C)N(C(=O)Nc2c(C)noc2C)C[C@H]1C`, the figure is 0.367% (inactive); as for `COc1ccc2c3c(n(C)c2c1)[C@@H](CO)N(C(=O)NC(C)C)CC31CN(C(C)=O)C1`, -0.138% (inactive).
On the same count and under the same terms, as for `Cc1ccc(NC(=O)COc2ccc(-c3nnco3)cc2)cc1S(=O)(=O)N1CCOCC1`, the figure is 0.01% (inactive); as for `CCC(C(=O)Nc1cc(OC)c(NC(=O)c2ccccc2)cc1OC)c1ccccc1` (centres undefined), 0.022% (inactive); as for `CC(=O)c1ccc(NC(=O)COC(=O)CCc2ccc(S(=O)(=O)N3CCOCC3)cc2)cc1`, 0.108% (inactive).
Same read-out and setting: as for `Cc1ccc(-c2[nH]c(=S)[nH]c(=O)c2C#N)cc1`, the figure is 0.007% (inactive); as for `CC(=O)c1ccc(C(=O)Nc2sc3c(c2C(N)=O)CCN(Cc2ccccc2)C3)cc1`, 8.52% (inactive).
For `COc1ccc(-n2ncc(Cl)c(Cl)c2=O)cc1`, the % fluorescent cells increase was 0% (inactive).
Consider `Cc1occc1C(=O)N/N=C/C(Br)=C\c1ccccc1`, for which the % fluorescent cells increase is -0.004% (inactive).
The same measure, in the same setting: as for `O=C(CCn1nc(-c2ccc(Cl)cc2)c2ccccc2c1=O)NN1CCOCC1`, the figure is 0.116% (inactive); as for `Cc1ccc(C(=O)Cn2cncn2)cc1`, -0.006% (inactive); as for `COCCN(C(=O)c1ccc2c(c1)C(=O)N(c1ccccc1Cl)C2=O)c1c(N)n(CC(C)C)c(=O)[nH]c1=O`, 1.41% (inactive).
